US6582717B1, “Drug delivery composition and device” (Massachusetts Institute of Technology, priority 2000, dated 2003)

Test: Encapsulation efficiency of drug in PLGA / cyclodextrin delivery matrix
Format: physicochemical
[1] = PLGA and Hydroxy-propyl β-Cyclodextrin
[2] = PLGA and Methylated β-Cyclodextrin

Encapsulation Efficiency (%) (PGLA, no cyclodextrin)	Encapsulation Efficiency (amount encapsulated) (PGLA, no cyclodextrin)	Encapsulation Efficiency (%) [1]	Encapsulation Efficiency (amount encapsulated) [1]	Encapsulation Efficiency (%) [2]	Encapsulation Efficiency (amount encapsulated) [2]	Compound
(9.28%)	185.7 µg	(15.1%)	302.8 µg	(9.02%)	180.5 µg	[H]/N=C(\N/C(=N/[H])NCCCCCCNC(=N)NC(=N)Nc1ccc(Cl)cc1)Nc1ccc(Cl)cc1 [Chx, chlorhexidine]
(10.2%)	204.7 µg	(6.1%)	121.2 µg	(11.5%)	230.3 µg	N=C(NCCCCCCNC(=N)NC(=N)Nc1ccc(Cl)cc1)NC(=N)Nc1ccc(Cl)cc1.O=C(O)[C@H](O)[C@@H](O)[C@H](O)[C@H](O)CO.O=C(O)[C@H](O)[C@@H](O)[C@H](O)[C@H](O)CO [ChxDg, chlorhexidine digluconate]
